≈ marks a conversion by molar mass, not a printed value. Read-outs that look alike come from different tables or passages of the source.

Holding throughout (assay): agar dilution plate method, wood rot fungi (MIC, IC50, percent retardation)
Format in all cases: cell-based
In general terms: In agar dilution, organisms are placed on agar that contains the substance at set levels.

The test system of assay [1] is T. versicolor (white rot fungi). As to conditions: for MIC: Trametes versicolor.
The subject of assay [2] is G. trabeum (brown rot fungi). As to conditions: for MIC: Gloeophyllum trabeum.
In assay [3] the test system is P. placenta (brown rot fungi).
Assay [4] relates to C. globosum (soft rot decay fungi). As to conditions: for MIC: Chaetomium globosum.
Where [5] appears, read: azole alone, read-out: T. versicolor MIC.
The mark [6] stands for this setting: azole alone, Table2D curve fitting.
Setting [7] is: azole alone, read-out: G. trabeum MIC.
Where [8] appears, read: azole alone, read-out: P. placenta MIC.
Setting [9] is: azole alone, read-out: C. globosum MIC.
Where [10] appears, read: amine oxide alone, 100% growth retardation, read-out: MIC (ppm of amine oxides) T. versicolor.
Setting [11] is: amine oxide alone, 100% growth retardation, read-out: MIC (ppm of amine oxides) G. trabeum.
The mark [12] stands for this setting: amine oxide alone, 100% growth retardation, read-out: MIC (ppm of amine oxides) P. placenta.
Setting [13] is: amine oxide alone, 100% growth retardation, read-out: MIC (ppm of amine oxides) C. globosum.
Where [14] appears, read: Table 8, ppm of amine oxide or didecyldimethyl ammonium chloride.
Setting [15] is: amine oxide alone, 100% growth retardation.
[16] abbreviates: ppm of amine oxide or didecyldimethyl ammonium chloride, Table2D curve fitting.

What is called MIC is the lowest concentration found to suppress growth. `CC(C1CC1)C(O)(Cn1cncn1)c1ccc(Cl)cc1` (stereo not shown) [Cyproconazole, cyproconazole]: the MIC in assay [1] (setting [5]) amounted to 2.5 mg/L (≈ 8.57 µM); in assay [2] (setting [7]), 2.5 mg/L (≈ 8.57 µM); in assay [3] (setting [8]), 2.5 mg/L (≈ 8.57 µM); in assay [4] (setting [9]), 25 mg/L (≈ 85.7 µM). The “T. versicolor IC50” value in assay [1] (setting [6]) is reported as 0.2 ppm. Further, in assay [2] (setting [6]), the “G. trabeum IC50” value is given as 0.3 ppm. Moreover, the “P. placenta IC50” value in assay [3] (setting [6]) is given as 0.7 ppm. In assay [4] (setting [6]), the “C. globosum IC50” value is recorded as 2.3 ppm.

As to `CCCCCCCCCCCCCCCC[N+](C)(C)[O-]` [Hexadecyl-DMAO, hexadecyl dimethylamine oxide], the MIC in assay [1] (setting [10]), in assay [2] (setting [11]), in assay [3] (setting [12]) and in assay [4] (setting [13]) was above 1000 mg/L throughout. In addition, the “Qa, concentration of amine oxide alone required to yield 100% retardation, T. versicolor” value (“Qa … to yield 100% retardation, T. versicolor” for short) in assay [1] (amine oxide alone) is given as 1000 ppm. Also, the “Qa, concentration of amine oxide alone required to yield 100% retardation, G. trabeum” value (“Qa … to yield 100% retardation, G. trabeum” below) in assay [2] (amine oxide alone) is 1000 ppm. Moreover, the “Qa, concentration of amine oxide alone required to yield 100% retardation, P. placenta” value (“Qa … to yield 100% retardation, P. placenta” below) in assay [3] (amine oxide alone) came to 1000 ppm.

For the compound `CCCC1COC(Cn2cncn2)(c2ccc(Cl)cc2Cl)O1` (stereo not shown) [Propiconazole, propiconazole], the minimum inhibitory concentration (MIC) in assay [1] (setting [5]) is 50 mg/L (≈ 146 µM); in assay [2] (setting [7]), above 50 mg/L; in assay [3] (setting [8]) it was 50 mg/L (≈ 146 µM); in assay [4] (setting [9]), above 50 mg/L. Besides, the “Qb, concentration of azole alone required to yield 100% retardation, T. versicolor” value in assay [1] (azole alone) turned out to be 50 ppm. The “T. versicolor IC50” value in assay [1] (setting [6]) is 3 ppm. The “Qb, concentration of azole alone required to yield 100% retardation, G. trabeum” value in assay [2] (azole alone) amounted to 50 ppm. Moreover, the “G. trabeum IC50” value in assay [2] (setting [6]) turned out to be 0.9 ppm. The “Qb, concentration of azole alone required to yield 100% retardation, P. placenta” value in assay [3] (azole alone) is on record as 50 ppm. In assay [3] (setting [6]), the “P. placenta IC50” value is reported as 0.7 ppm. In addition, the “C. globosum IC50” value in assay [4] (setting [6]) came out at 11.7 ppm.

For the compound `CCCCCCCC[N+](C)(C)[O-]` [Octyldimethylamine oxide, octyl dimethylamine oxide], the MIC in assay [1] (setting [10]) was 750 mg/L (≈ 4330 µM); in assay [2] (setting [11]) it was 1000 mg/L (≈ 5770 µM); in assay [3] (setting [12]), 1000 mg/L (≈ 5770 µM); in assay [4] (setting [13]) it was above 1000 mg/L. In addition, the “Qa … to yield 100% retardation, T. versicolor” value in assay [1] (amine oxide alone) worked out at 750 ppm. Further, the “Qa … to yield 100% retardation, G. trabeum” value in assay [2] (amine oxide alone) came to 1000 ppm. Moreover, the “Qa … to yield 100% retardation, P. placenta” value in assay [3] (amine oxide alone) is reported as 1000 ppm.

For the compound “coco-alkyl (C12-C16) dimethylamine oxide [Coco-DMAO]”, in assay [1] (setting [14]), the “MIC T. versicolor” value stood at 750 ppm. In assay [1] (amine oxide alone), the “Qa … to yield 100% retardation, T. versicolor” value is given as 750 ppm. Also, the “MIC (ppm of amine oxides) T. versicolor” value in assay [1] (setting [15]) is reported as 750 ppm. For the same compound, in assay [1] (setting [16]), the “IC50 T. versicolor” value is recorded as 51 ppm. Besides, the “MIC G. trabeum” value in assay [2] (setting [14]) was 500 ppm. The “Qa … to yield 100% retardation, G. trabeum” value in assay [2] (amine oxide alone) is 500 ppm. In assay [2] (setting [15]), the “MIC (ppm of amine oxides) G. trabeum” value is listed as 500 ppm. Further, the “IC50 G. trabeum” value in assay [2] (setting [16]) was determined as 9 ppm. The “MIC P. placenta” value in assay [3] (setting [14]) is recorded as 1000 ppm. Besides, the “MIC (ppm of amine oxides) P. placenta” value in assay [3] (setting [15]) is 500-1000 ppm. Besides, the “IC50 P. placenta” value in assay [3] (setting [16]) turned out to be 5 ppm. Further, the “MIC C. globosum” value in assay [4] (setting [14]) was above 1000 ppm. For the same compound, the “MIC (ppm of amine oxides) C. globosum” value in assay [4] (setting [15]) is above 1000 ppm. The “IC50 C. globosum” value in assay [4] (setting [16]) came out at 47 ppm.

In the case of `CCCCCCCCCCCC[N+](C)([O-])Cc1ccccc1` (stereo not shown) [Dodecyl-BMAO], in assay [1] (setting [15]), the “MIC (ppm of amine oxides) T. versicolor” value is on record as above 1000 ppm. For the same compound, in assay [2] (setting [15]), the “MIC (ppm of amine oxides) G. trabeum” value worked out at 1000 ppm. Moreover, the “MIC (ppm of amine oxides) P. placenta” value in assay [3] (setting [15]) is above 1000 ppm. The “MIC (ppm of amine oxides) C. globosum” value in assay [4] (setting [15]) is above 1000 ppm.

In the case of `CCCCCCCCCCCC[N+]1([O-])CCOCC1` [Lauryl morpholine N-oxide, lauryl morpholine N-oxide], in assay [1] (amine oxide alone), the “Qa … to yield 100% retardation, T. versicolor” value was 750 ppm. In addition, the “MIC (ppm of amine oxides) T. versicolor” value in assay [1] (setting [15]) is on record as 750 ppm. Further, in assay [2] (amine oxide alone), the “Qa … to yield 100% retardation, G. trabeum” value stood at 1000 ppm. The “MIC (ppm of amine oxides) G. trabeum” value in assay [2] (setting [15]) turned out to be 1000 ppm. For the same compound, in assay [3] (amine oxide alone), the “Qa … to yield 100% retardation, P. placenta” value is 500 ppm. For the same compound, the “MIC (ppm of amine oxides) P. placenta” value in assay [3] (setting [15]) was determined as 500 ppm. Besides, the “MIC (ppm of amine oxides) C. globosum” value in assay [4] (setting [15]) was above 1000 ppm.
